Measured values published in patent US9655991B2, “Stable hydrogel compositions including additives” (Allergan Industries, S.A.S., priority 2010, dated 2017).

Assay: Oxidative degradation of gel by free radicals (H2O2) on rheometer
Settings: gel with AA2G and lidocaine vs gel with lidocaine
Source text: The effect of ascorbic acid 2-glucoside (AA2G™) on HA-based gel matrix oxidative degradation was studied. Oxidation testing was used as it allows testing of the resistance of a HA-based gel matrix to free radicals. Degradation by free radicals was simulated on a rheometer (Haake Rheostress 600) by addition of 1/7 ratio of H2O2 30% on the surface of a spread gel measured with a controlled stress rheometer according to the following method: frequency of 1 Hz with 0.8% controlled strain, during 3600 s at 35° C. The time value is taken at 5 Pa/s.

Compound: O=C1O[C@H]([C@@H](O)CO)C(O)=C1O[C@H]1O[C@H](CO)[C@@H](O)[C@H](O)[C@H]1O [Ascorbic acid 2-glucoside (AA2G™), Ascorbic acid 2-glucoside]
- Protection against oxidative degradation (factor): 3
